In PubChem BioAssay (NCI):
“And” between values parts separate entries of the source, which are not always exact repeats. Identical values can stand only once.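 Method: 48-hour compound exposure of cells in 96-well plates, five concentrations, linear interpolation of endpoints. The concentration for 50% growth inhibition is given as GI50. The concentration for full growth arrest is given as TGI.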

Key:
Assay in all cases: DTP human tumour cell line panel, 48 h
NCI/ADR-RES ovarian = system: NCI/ADR-RES ovarian
SNB-19 CNS = system: SNB-19 CNS
SR leukemia = system: SR leukemia
T-47D breast = system: T-47D breast
SF-268 CNS = system: SF-268 CNS
CAKI-1 renal = system: CAKI-1 renal
A549 NSCLC = system: A549 NSCLC
NCI-H460 lung = system: NCI-H460 lung
UACC-62 melanoma = system: UACC-62 melanoma
DU-145 prostate = system: DU-145 prostate

Compound	TGI (NCI/ADR-RES ovarian) [µM]	TGI (SNB-19 CNS) [µM]	TGI (SR leukemia) [µM]	TGI (T-47D breast) [µM]	TGI (SF-268 CNS) [µM]	TGI (CAKI-1 renal)	TGI (A549 NSCLC) [µM]	TGI (NCI-H460 lung) [µM]	TGI (UACC-62 melanoma) [µM]	TGI (DU-145 prostate) [µM]	GI50 (NCI/ADR-RES ovarian) [µM]	GI50 (SNB-19 CNS) [µM]	GI50 (SR leukemia) [µM]	GI50 (T-47D breast) [µM]	GI50 (SF-268 CNS) [µM]	GI50 (CAKI-1 renal) [µM]	GI50 (A549 NSCLC) [µM]	GI50 (NCI-H460 lung) [µM]	GI50 (UACC-62 melanoma) [µM]	GI50 (DU-145 prostate) [µM]
CN(N=O)c1ccc(/C=C/c2ccnc3ccccc23)cc1	> 100	> 100	> 100	> 100	> 100	> 100 µM	> 100	> 100	> 100	> 100										
Cc1ccc(C)c(N2CCN(c3ccncc3N)CC2)c1	> 100	> 100	52.6	30.3	> 100	83.9 µM	> 100	31.9	30.8	64.8	14.5	28.8	15.6	3.23	24.9	13.4	17.5	13.7	13.9	17.9
Cc1cnc(C(=O)Nc2nc3ccc(S(=O)(=O)Nc4ccc(C(C)(C)C)cc4)cc3[nH]2)cn1	3.57	13.7	12.5	20.8	13.6	16.4 µM	9.14	2.02	13	4.51	0.37	0.591	0.133	0.592	0.759	0.544	0.652	0.37	0.537	0.525
Nc1nc(N)c(CCCCc2ccc([N+](=O)[O-])cc2)c(N)n1	> 100	> 100	> 100	> 100	> 100	> 100 µM	> 100	> 100	> 100	> 100										
COc1ccc2c(c1O)[C@@]13CCCC=C1[C@@H](C2)N(C)CC3	> 100	> 100	81.5	> 100	> 100	> 100 µM	> 100	> 100	> 100	> 100										
COc1cc2c3c(c4ccc(O)cc4c2cc1OC)[C@@H](O)[C@@H]1CCCN1C3	0.532	0.00216	0.215	0.00216	0.0018	0.00285 µM	0.0026	0.0155	0.0807	0.0036										
O=C1c2ccccc2C(=O)c2c1ccc1c3ccccc3n(-c3ccccc3)c21	> 100	> 100	41.9	45.5	54	35.1 µM	58.1	63.8	24.1	33.4										
CC[C@H](C)[C@H](NC(=O)CN(C)C)C(=O)N(C)[C@H](C[C@@H](OC(C)=O)c1nc(C(=O)NC23C4C5C2C2C3C4C52C(=O)OC)cs1)C(C)C (some centres not stated)	> 33.2	> 33.2	> 33.2	> 33.2	> 33.2	> 33.2 µM	> 33.2	> 33.2	> 33.2	> 33.2	11.1	1.31	0.038	> 33.2	0.668	7.13	2.12	0.814	0.19	0.176
CCCCCn1sc(=O)n(Cc2ccc(CNC(=O)C(C)c3ccc(CC(C)C)cc3)cc2)c1=O (configuration not stated)	5.54	2.91	5.77	4.05	2.96	1.92 µM	4.26	3.07	2.62	2.4	1.65	1.55	0.452	1.6	1.52	0.562	1.65	1.46	1.3	1.17
COc1cc(/C=N\Nc2ccccc2)ccc1OC(=O)c1ccccc1	> 100	> 100	> 100	> 85.9	> 100	33.7 µM	37.5	> 46	4.47	> 100	0.903	19.8	16.5	0.268	4.54	2.27	4.01	1.22	0.311	39.4
C=C1C(C)C2C(Cc3ccccc3)NC(=O)C23C(OC(C)=O)C=CC(C)(O)C(=O)C(C)C/C=C/C3C1O (configuration not stated)	> 500		> 289	> 357		1.12 µM and 1.66 µM	> 500	> 295	> 285	> 500	> 500	0.474		5.14	0.698	0.05	0.241	0.291	29.4	19.1
CNC(=O)c1sc(-n2cnc3cc(OC)c(OC)cc32)cc1OCc1ccccc1C(F)(F)F	> 25	> 25	> 25	> 25	> 25	> 25 µM	> 25	> 25	> 25	> 25	14.9	> 23.6	9.49	19.9	> 25	> 25	> 25	> 25	> 22.6	> 25
COc1cc(F)c(F)c(Nc2ccc(I)cc2F)c1NS(=O)(=O)C1(CC(O)CO)CC1 (configuration not stated)	57.9	50.1	> 69.4	> 75.5	55	54.4 µM	> 64.9	33.2	9.81	54	18.8	11	15.7	15.7	15.6	10.2	15.4	13.9	1.96	19.4
CCc1ccc([OH2+])c(C(=O)[O-])c1.CCc1ccc([OH2+])c(C(=O)[O-])c1.CCc1ccc([OH2+])c(C(=O)[O-])c1.CCc1ccc([OH2+])c(C(=O)[O-])c1.[Cu+2].[Cu+2]	> 100	> 61.8	> 100	> 100	> 100	> 82.4 µM	> 100	> 100	> 100	> 100	17.3	36.8	24.5	> 100	> 100	24.9	38.6	52.6	70.5	70.1
